Results taken from patent publication US6624142B2, “Trimethyl lock based tetrapartate prodrugs” (Enzon, Inc., priority 1997, dated 2003).

Tested on: s.c. Human Mammary Tumor (MX-1)
Assay: Efficacy against s.c. MX-1 human mammary tumor in nude mice
Type: in vivo
Conditions: 30 mg/kg q7d × 3, iv
Experimental: Following at least one week of acclimation, tumors were established by injecting 1×10^6 (100 μl) harvested MX-1 mammary tumor cells in a single subcutaneous site, on the left axillary flank region of nude mice. The tumor injection site was observed twice weekly and measured once palpable. The tumor volume for each mouse was determined by measuring two dimensions with calipers and calculated using the formula: tumor volume ((length×width^2)/2). When tumors reached the average volume of approximately 65 mm^3, the mice were divided into their experimental groups, which consists of vehicles (20 m M Sodium PO4 in 0.6% NaCl) controls, Leu-Doxorubicin, compound 3 of Example 1a, compound 5 of Example 2a. The mice were sorted to evenly distribute tumor size, grouped into 6 mice/cage, and ear punched for permanent identification. Drugs were dosed intravenously via the tail vein once per week for three weeks (Qd7×3). Mouse weight and tumor sizes were measured at the beginning of study and twice weekly through week 5.
The overall growth of tumors was calculated as the mean tumor volume at one week following the end of the treatment. A percent treatment over control (T/C) value was also calculated when the control group's median tumor size reached approximately 800-1100 mm^3 and again at one week following treatment. The T/C value in percent is a non-quantitative indication of anti-tumor effectiveness.

Q: How did the “Tumor Vol. Mean ± SEM (Day 25-28)” value (Day 25-28, mean baseline tumor volume 65 mm^3) turn out when `COc1cccc2c1C(=O)c1c(O)c3c(c(O)c1C2=O)C[C@@](O)(C(=O)CO)C[C@@H]3O[C@H]1C[C@H](NC(=O)[C@@H](N)CC(C)C)[C@H](O)[C@H](C)O1` [Leu-Dox, Leucine-Doxorubicin, reference compound] was run?
A: Its value is 860 ± 163 mm^3.

Q: What about the “T/C (%) 1000 mm^3” value (median tumor volume, treatment vs control, when control median reached approximately 1000 mm^3) of the same compound?
A: Its value is 56.5%.

Q: What about the “% Change Mean ± SEM (Day 25-28)” value (tumor volume change, Day 25-28) of the same compound?
A: The value was 1373 ± 487%.
